Structures are written as SMILES.

This assay relates to Puccinia recondita tritici = Puccinia triticina (PUCCRT). The experiment in a line: Fungicidal activity vs. leaf rust on wheat plants. The format is in vivo. The conditions noted are these: wheat (Yuma) sprayed at 50 ppm, inoculated the following day, rated 7-9 days later, read-out: Puccinia Rating (% Disease Control @ 50 ppm). From the text: D. Evaluation of Fungicidal Activity vs. Leaf Rust (Causal Agent Puccinia Recondita Tritici=Puccinia Triticina; Bayer Code PUCCRT)
Each pot contained 3-8 seedlings. These plants were sprayed until wet with the formulated test compounds. The compounds were formulated at 50 ppm in 10 vol. % acetone plus 90 vol. % Triton X water (deionized water 99.99 wt %+0.01 wt % Triton X100), giving a “formulated test compound.” Formulated test compounds were applied to plants using a turn table sprayer fitted with two opposing air atomization nozzles which delivered approximately 1500 L/ha of spray volume. On the following day, the leaves were inoculated with an aqueous spore suspension of Puccinia recondita tritici and the plants were kept in high humidity overnight to permit spores to germinate and infect the leaf. The plants were then transferred to a greenhouse until disease developed on untreated control plants. Disease severity was evaluated 7-9 days later, depending on the speed of disease development.
In each case of Table 3, the Puccinia rating scale is as follows: […]
As for `OC(Cn1cnnn1)(c1ccc(Cl)cc1F)C(F)(F)c1ccc(OCC2CC2)cn1` (stereo not drawn) [Compound 54, 2-(4-Chloro-2-fluorophenyl)-1-(5-(cyclopropylmethoxy)pyridin-2-yl)-1,1-difluoro-3-(1H-tetrazol-1-yl)propan-2-ol], the pest or weed control at 50 ppm lay within 80 to 100%.

Turning to `COc1ccc(C(F)(F)C(O)(Cn2cnnn2)c2ccc(F)cc2F)nc1` (stereo not drawn) [Compound 8, 2-(2,4-Difluorophenyl)-1,1-difluoro-1-(5-methoxypyridin-2-yl)-3-(1H-tetrazol-1-yl)propan-2-ol], the pest or weed control at 50 ppm was in the range of 80 to 100%.

With `N#Cc1cc(COc2ccc(C(F)(F)C(O)(Cn3cnnn3)c3ccc(F)cc3F)nc2)ccc1F` (stereo not drawn) [Compound 65, 5-(((6-(2-(2,4-Difluorophenyl)-1,1-difluoro-2-hydroxy-3-(1H-tetrazol-1-yl)propyl)pyridin-3-yl)oxy)methyl)-2-fluorobenzonitrile], the pest or weed control at 50 ppm was in the range of 80 to 100%.

With `OC(Cn1cnnn1)(c1ccc(F)cc1F)C(F)(F)c1ccc(OCC(F)c2ccc(OC(F)F)cc2)cn1` (stereo not drawn) [Compound 124, 1-(5-(2-(4-(difluoromethoxy)phenyl)-2-fluoroethoxy)pyridin-2-yl)-2-(2,4-difluorophenyl)-1,1-difluoro-3-(1H-tetrazol-1-yl)propan-2-ol], the pest or weed control at 50 ppm lay in the range of 80 to 100%.

`OC(Cn1cnnn1)(c1ccc(F)cc1F)C(F)(F)c1ccc(Oc2ccc(F)c(F)c2)cn1` (stereo not drawn) [Compound 86, 1-(5-(3,4-Difluorophenoxy)pyridin-2-yl)-2-(2,4-difluorophenyl)-1,1-difluoro-3-(1H-tetrazol-1-yl)propan-2-ol]: the pest or weed control at 50 ppm lay in the range of 80 to 100%.

Consider `N#Cc1ccc(COc2ccc(C(F)(F)C(O)(Cn3cnnn3)c3ccc(F)cc3F)nc2)cc1F` (stereo not drawn) [Compound 10, 4-(((6-(2-(2,4-Difluorophenyl)-1,1-difluoro-2-hydroxy-3-(1H-tetrazol-1-yl)propyl)pyridin-3-yl)oxy)methyl)-2-fluorobenzonitrile], for which the pest or weed control at 50 ppm was 80 to 100%.

With `N#Cc1cccc(COc2ccc(C(F)(F)C(O)(Cn3cnnn3)c3ccc(F)cc3F)nc2)c1F` (stereo not drawn) [Compound 67, 3-(((6-(2-(2,4-Difluorophenyl)-1,1-difluoro-2-hydroxy-3-(1H-tetrazol-1-yl)propyl)pyridin-3-yl)oxy)methyl)-2-fluorobenzonitrile], the pest or weed control at 50 ppm is 80 to 100%.

With `OC(Cn1cnnn1)(c1ccc(F)cc1F)C(F)(F)c1ccc(OCc2ccccn2)cn1` (stereo not drawn) [Compound 37, 2-(2,4-Difluorophenyl)-1,1-difluoro-1-(5-(pyridin-2-ylmethoxy)pyridin-2-yl)-3-(1H-tetrazol-1-yl)propan-2-ol], the pest or weed control at 50 ppm lay within 80 to 100%.

As for `OC(Cn1cnnn1)(c1ccc(F)cc1F)C(F)(F)c1ccc(OCC(F)c2ccccc2)cn1` (stereo not drawn) [Compound 123, 2-(2,4-difluorophenyl)-1,1-difluoro-1-(5-(2-fluoro-2-phenylethoxy)pyridin-2-yl)-3-(1H-tetrazol-1-yl)propan-2-ol], the pest or weed control at 50 ppm lay in the range of 80 to 100%.

As to `OC(Cn1cnnn1)(c1ccc(F)cc1F)C(F)(F)c1ccc(Oc2ccc(/C=N/OCc3ccccc3)cn2)cn1` (stereo not drawn) [Compound 103, (E)-6-((6-(2-(2,4-difluorophenyl)-1,1-difluoro-2-hydroxy-3-(1H-tetrazol-1-yl)propyl)pyridin-3-yl)oxy)nicotinaldehyde O-benzyl oxime], the pest or weed control at 50 ppm lay within 60 to 79%.

`OC(Cn1cnnn1)(c1ccc(F)cc1F)C(F)(F)c1ccc(Oc2ncc(Cl)cn2)cn1` (stereo not drawn) [Compound 98, 1-(5-((5-chloropyrimidin-2-yl)oxy)pyridin-2-yl)-2-(2,4-difluorophenyl)-1,1-difluoro-3-(1H-tetrazol-1-yl)propan-2-ol]: the pest or weed control at 50 ppm fell in the range of 80 to 100%.

Take `OC(Cn1cnnn1)(c1ccc(F)cc1F)C(F)(F)c1ccc(OCc2ccc(C(F)(F)F)cc2)cn1` (stereo not drawn) [Compound 22, 2-(2,4-Difluorophenyl)-1,1-difluoro-3-(1H-tetrazol-1-yl)-1-(5-((4-(trifluoromethyl)benzyl)oxy)pyridin-2-yl)propan-2-ol]: the pest or weed control at 50 ppm was 80 to 100%.
